Laboratory results as given in paper PMC9504587, “Cytotoxic Drimane-Type Sesquiterpenes from Co-Culture of the Marine-Derived Fungi Aspergillus carneus KMM 4638 and Beauveria felina (=Isaria felina) KMM 4639” (Marine Drugs, 2022).
Converted amounts (≈) assume the structure as drawn. Like-named read-outs stand apart in the source and are kept apart here.

What was measured:
[1] = test system: normal rat cardiomyocyte H9c2 cell line; test: MTT cytotoxicity assay, H9c2 cells; format: cell-based; details: 24 h incubation, mean ± SEM
Procedure: (§1) PC-3, MCF-7, C6, and H9c2 cells were cultured in DMEM medium (Biolot, St. Petersburg, Russia) containing 10% fetal bovine serum (Biolot, St. Petersburg, Russia) and 1% penicillin/streptomycin (Biolot, St. Petersburg, Russia) at 37 °C in a humidified atmosphere with 5% (v/v) CO2. The Raji cells were cultured in RPMI-1640 medium (Biolot, St. Petersburg, Russia) containing 10% fetal bovine serum (Biolot, St. Petersburg, Russia) and 1% penicillin/streptomycin (Biolot, St. Petersburg, Russia) under the same conditions.
(§2) Initially, cells were incubated in culture flasks until subconfluent (~80%). For testing, the cells were seeded at concentrations of 5 × 10^3 cells/well (PC-3, MCF-7, Raji, and C6 cells) or 3 × 10^3 cells/well (H9c2 cells), and experiments were started after 24 h.
(§3) The in vitro cytotoxicity of individual substances was determined by the MTT method (3-(4,5-dimethylthiazol-2-yl)-2,5-diphenyltetrazolium bromide), according to the manufacturer’s instructions (Sigma-Aldrich, St. Louis, MO, USA).
(§4) Investigated compounds were dissolved in DMSO at a concentration of 10 mM.
(§5) The cells were treated with the investigated compounds for 24 h or 48 h, and MTT reagent was added to each well of the plate. The vehicle with DMSO at a concentration of 1% was used as a control. The absorbance of formed formazan was measured at λ = 570 nm using a Multiskan FC microplate photometer (Thermo Scientific, Waltham, MA, USA) and expressed in optical units (o.u.). The results are presented as % of viable cells relative to vehicle, and 50% inhibition concentration of cell viability (IC50) was calculated.

[2] = test system: human hepatocarcinoma HepG2; parameters: method as in doi:10.25135/rnp.294.2109.2194; details: cited from earlier work
rat glioblastoma C6 = test: MTT cytotoxicity assay, C6 cells; format: cell-based; details: 24 h incubation, mean ± SEM
Procedure: as §1, §2, §3, §4, §5

human lymphoma Raji = test: MTT cytotoxicity assay, Raji cells; format: cell-based; details: 24 h incubation, mean ± SEM
Procedure: as §1, §2, §3, §4, §5

[3] = test system: human prostate cancer PC-3; test: MTT cytotoxicity assay, PC-3 cells; format: cell-based; details: 24 h incubation, mean ± SEM
Procedure: as §1, §2, §3, §4, §5

[4] = test system: human breast cancer MCF-7; test: MTT cytotoxicity assay, MCF-7 cells; format: cell-based
Procedure: as §1, §2, §3, §4, §5

[5] = test system: gastric cancer MKN-45 cells; parameters: method as in doi:10.25135/rnp.294.2109.2194; details: cited from earlier work
SHP2 = target: SHP2; parameters: method as in earlier work; details: cell-free assay; cited from earlier work
MCF-7 cells [6] = test: Cell cycle analysis by flow cytometry (propidium iodide); format: cell-based, human; details: 10 µM, 48 h
Procedure: After incubation, cells were trypsinized, harvested, washed with PBS, and fixed with ice-cold 70% ethanol in a dropwise manner prior to storage at −20 °C overnight. The cells were then washed with PBS, incubated with 200 μg/mL RNAse (PanReac, AppliChem, Darmstadt, Germany) and 20 μg/mL of propidium iodide (Sigma-Aldrich, St. Louis, MO, USA) for 30 min at 37 °C, and the DNA content was analyzed with a Muse® cell analyzer (Luminex, Austin, TX, USA). The data were processed by Muse 1.5 analysis software (Luminex, Austin, TX, USA). The proportion of cells in each phase of the cell cycle was expressed as a percentage.

MCF-7 cells [7] = test: Apoptosis profile by flow cytometry (Muse annexin V and dead cell kit); format: cell-based, human; details: 10 µM, 48 h
Procedure: After incubation, culture media were collected; then, cells were washed twice with cold PBS and incubated with trypsin-EDTA solution for 1 min. The cell suspension was washed twice by centrifugated at 250× g for 4 min with cold PBS and used for apoptosis detection by a Muse® annexin V and dead cell kit in accordance with manufacturer’s instructions (Luminex, Austin, TX, USA). Fluorescence was measured with a Muse® cell analyzer (Luminex, Austin, TX, USA), and data were processed by Muse 1.5 analysis software (Luminex, Austin, TX, USA). The proportion of apoptotic cells was expressed as a percentage.

MCF-7 cells [8] = test: Total caspase activity by flow cytometry (Muse multicaspase kit); format: cell-based, human; details: 10 µM, 48 h; control 4.7%
Procedure: The influence of the compounds on the percentage of live MCF-7 cells (caspase−/7-AAD−), live MCF-7 cells with caspase activity (caspase+/7-AAD−), dead MCF-7 cells with caspase activity […] MCF-7 cells (caspase−/7-AAD+) was measured by a Muse® multicaspase kit (Luminex, Austin, TX, USA). The kit utilizes a VAD-peptide derivatized with a fluorescent group called fluorescent-labeled inhibitor of caspases (FLICA). The peptide binds to activated caspases, resulting in a fluorescent signal proportional to the number of active caspases in the cell. Fluorescent dye 7-AAD was used as a dead cell marker in this assay.
After incubation, culture media were collected, and cells were washed twice with cold PBS and incubated in trypsin-EDTA solution for 1 min. The cell suspension was washed twice by centrifugation at 250× g for 4 min with cold PBS and then used for caspase activity detection by a Muse® multicaspase kit (caspases 1, 3, 4, 5, 6, 7, 8, and 9) in accordance with manufacturer’s instructions (Luminex, Austin, TX, USA). Fluorescence was measured with a Muse® cell analyzer (Luminex, Austin, TX, USA), and data were processed by Muse 1.5 analysis software (Luminex, Austin, TX, USA).

PTP1B = target: PTP1B; parameters: method as in earlier work; details: cell-free assay; cited from earlier work
[9] = test system: H9c2, C6, PC-3, Raji and MCF-7 cells; test: MTT cytotoxicity, summary statements over several cell lines; format: cell-based; details: 24 h
Procedure: as §3, §4, §5

[10] = Homo sapiens, MCF7, 24 h, 24 h incubation, mean ± SEM, read-out: IC50, MCF-7
[11] = 24 h incubation, mean ± SEM, read-out: IC50, MCF-7

| Compound | IC50 ([1]; Rattus norvegicus, H9c2, 24 h) | IC50 (rat glioblastoma C6; Rattus norvegicus, C6, 24 h) | IC50 (human lymphoma Raji; Homo sapiens, Raji, 24 h) | IC50 ([3]; Homo sapiens, PC-3, 24 h) | IC50 [4, 10] | IC50 [1] | IC50 (rat glioblastoma C6) | IC50 (human lymphoma Raji) | IC50 [3] | IC50 [4, 11] | further results |
| --- | --- | --- | --- | --- | --- | --- | --- | --- | --- | --- | --- |
| CC(O)C(O)C=CC=CC(=O)OC1C=C(CO)C(O)(CO)C2(C)CCCC(C)(C)C12 (stereo not shown) [Compound 1, asperflavinoid A] | 84.2 ± 3.3 µM | 102 ± 1.7 µM | > 100 µM | 85.3 ± 2.9 µM | 59 ± 4.4 µM |  |  |  |  |  | IC50 [2]: 84.4 µM; IC50 [5]: 63.2 µM |
| CC(O)C(O)C=CC=CC(=O)OC1C=C(CO)C(O)(CO)C2(C)CCCC(C)(C)C12 (stereo not shown) [Compound 2, asperflavinoid B] |  |  |  |  |  | 74.4 ± 4.4 µM | > 100 µM | > 100 µM | 75.2 ± 3.8 µM | 54.1 ± 2.4 µM |  |
| CC1(C)CCC[C@@]2(C)[C@H]1[C@H](OC(=O)/C=C/C=C/C=O)C=C1CO[C@@H](O)[C@@]12O [Compound 3, asperflavinoid C] | 55.6 ± 2.6 µM | 56 ± 1.2 µM | 82.3 ± 2.9 µM | 50.8 ± 1.6 µM | 33.8 ± 2.2 µM |  |  |  |  |  | IC50, SHP2 enzyme activity (SHP2): 3.0 mg/L (≈ 7.97 µM); decrease in MCF-7 cell viability ([4]; 10 µM, 48 h): ~50%; IC50 ([4]; Homo sapiens, MCF7, 48 h, 48 h incubation, concentrations up to 10 µM, read-out: IC50, MCF-7 cell viability, prolonged incubation): 10 µM; subG0 cells (MCF-7 cells [6]; control 5.4%): 34.6%; decrease in the percentage of cells in the S phase (MCF-7 cells [6]; relative to control): 54.5%; increase of the percentage of cells in the G2/M phase (MCF-7 cells [6]; relative to control): 25.2%; reduction of the percentage of cells in the G0/G1 phase (MCF-7 cells [6]; relative to control): 30.9%; increase of the subG0 population of cells (MCF-7 cells [6]; versus control): 6.4 times; amount of apoptotic cells (early and late) (MCF-7 cells [7]; control 1.7%): 15.0%; amount of living cells (MCF-7 cells [7]; control 98.6%): 84.9%; percentage of cells exhibiting caspase activity (living and 7-AAD-labeled) (MCF-7 cells [8]): 12.3%; IC50, PTP1B enzyme activity (PTP1B): 2.8 mg/L (≈ 7.44 µM); IC50 ([9]; range over both compounds and three cell lines): 54.3 to 88.1 µM |
| CC(O)C(O)C=CC=CC(=O)OC1C=C2COC(O)C2(O)C2(C)CCCC(C)(C)C12 (stereo not shown) [Compound 4, asperflavinoid D] | 59.3 ± 1.7 µM | > 100 µM | 85.7 ± 6 µM | 57.4 ± 2.4 µM | 75 ± 6.2 µM |  |  |  |  |  |  |
| CC(O)C(O)C=CC=CC(=O)OC1C=C2COC(O)C2(O)C2(C)CCCC(C)(C)C12 (stereo not shown) [Compound 5, asperflavinoid E] |  |  |  |  |  | 63.9 ± 1.6 µM | > 100 µM | 94.4 ± 2.3 µM | 59.1 ± 0.8 µM | 80.6 ± 3.5 µM |  |
| CC1(C)CCC[C@@]2(C)[C@H]1[C@H](O)C=C1COC(=O)[C@@]12O [Compound 8, strobilactone A] | > 100 µM | > 100 µM | > 100 µM | > 100 µM | > 100 µM |  |  |  |  |  | influence on the viability of the tested cells ([9]; up to a concentration of 100 µM): did not influence the viability |
